How the values were obtained:
Par-4 = details: mouse embryonic fibroblast (MEF) cells; cited from earlier work
[1] = test system: tumor cell lines of renal cancer; experiment: In vitro 3D combination study, clonogenic assay, both cell lines; type: cell-based; details: Homo sapiens, A498; compound alone, colony formation in soft agar, range over RXF 1183L and RXF A-498; read-out: Relative IC50, single agent
Protocol: The objective of this study was to assess anti-tumor efficacy of ketorolac in combination with sunitinib in a 5×5 matrix combination format against tumor cell lines of renal cancer using a clonogenic assay with image analysis as read-out.
The clonogenic assay was carried out in a 96 well plate format using ultra low attachment plates. For each test cells were prepared as described above, and assay plates were prepared as follows: each test well contained a layer of semi-solid medium with tumor cells (50 μl), and a second layer of medium supernatant with or without test compounds (100 μl). The cell layer consisted of 3×10^3 to 1×10^4 tumor cells per well, which were seeded in 50 μl/well cell culture medium (IMDM, supplemented with 20% (v/v) fetal calf serum, 0.01% (w/v) gentamicin, and 0.4% (w/v) agar). The soft agar layer was immediately covered with 90 μl of the same culture medium without agar. After 24 h the test compounds were added after serial dilution in IMDM and transfer in cell culture medium, and left on the cells for the duration of the experiment (continuous exposure, 100 μL total drug overlay). Every plate included six untreated control wells and drug-treated groups in a layout as shown above. […] At the time of maximum colony formation, counts were performed with an automatic image analysis system (Celllnsight NXT, Thermo Scientific). […]

A498 cells = experiment: In vivo animal efficacy study, subcutaneous A498 tumor fragments; set-up: species or system female athymic nude mice; details: for Mean Tumor Volume / Tumor Growth Inhibition (% TGI): Sunitinib 20 mg/kg p.o. q.d. × 21 (G2)
Protocol: 10 Healthy female athymic nude mice were recruited for the donor cell inoculation. Animals were subcutaneously injected at flank region with 10 million A498 cells suspended in 200 μl of media and matrigel. Animals were monitored for solid tumor growth. […] Tumors were fragmented in to ˜30 mg size. […] [table] The tumor sizes were measured weekly twice from the date of tumor appearance till the end of the experiment. Tumor size was measured by digital vernier caliper (MITUTOYO) by measuring length (L=longest axis) and width (W=shortest axis). Tumor Volume was calculated using the formula: […] Form the tumor volume data mean tumor volume and % tumor growth inhibition (% TGI) were calculated (SEM=standard error of mean).

| SMILES | PAR-4 secretion (Par-4) | IC50 [1] | Mean Tumor Volume (A498 cells; day 1) | Tumor Growth Inhibition (% TGI) (A498 cells; day 1) | Mean Tumor Volume (A498 cells; day 6) | Tumor Growth Inhibition (% TGI) (A498 cells; day 6) | Mean Tumor Volume (A498 cells; day 9) | Tumor Growth Inhibition (% TGI) (A498 cells; day 9) | Mean Tumor Volume (A498 cells; day 13) | Tumor Growth Inhibition (% TGI) (A498 cells; day 13) | Mean Tumor Volume (A498 cells; day 16) | Tumor Growth Inhibition (% TGI) (A498 cells; day 16) | Mean Tumor Volume (A498 cells; day 20) | Tumor Growth Inhibition (% TGI) (A498 cells; day 20) | Maximum tumor inhibition (A498 cells; Sunitinib alone at a dose of 20 mg/kg) |
| --- | --- | --- | --- | --- | --- | --- | --- | --- | --- | --- | --- | --- | --- | --- | --- |
| COc1ccc(C2=N[C@@H](c3ccc(Cl)cc3)[C@@H](c3ccc(Cl)cc3)N2C(=O)N2CCNC(=O)C2)c(OC(C)C)c1 [Nutlin-3a] | stimulated PAR-4 secretion at micromolar levels |  |  |  |  |  |  |  |  |  |  |  |  |  |  |
| CCN(CC)CCNC(=O)c1c(C)[nH]c(/C=C2\C(=O)Nc3ccc(F)cc32)c1C [Sunitinib] |  | 1.5 to 4.59 µM | 145.40 mm^3 | 1.47% | 174.90 mm^3 | 47.31% | 261.95 mm^3 | 43.52% | 340.62 mm^3 | 44.80% | 448.05 mm^3 | 53.39% | 630.25 mm^3 | 50.78% | 51% |
